Data published in PubChem BioAssay AID330 (DTP/NCI, 2004).
Several values for one entry are separate records, joined by “and”; a condition that tells them apart may be missing. Equal values may be shown once. Toxic doses and inconclusive results are not listed. The calls were made as follows: active = survival T/C of 150% or more; inactive = T/C below 125% in these data.

Test system: P388 leukemia ip, CD2F1 mice, survival T/C
Assay: NCI In Vivo Anticancer Drug Screen. Data for tumor model P388 Leukemia (intraperitoneal) in CD2F1 (CDF1) mice
Settings: endpoint: median survival time, higher = longer survival
Outline: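 Mice carrying the transplanted tumor received test compound or vehicle. Survival was recorded in each group, and the value is the treated-group measurement divided by that of the vehicle-treated control group.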

[1] = dose: 50.0 mg/kg/injection, schedule: Q01DX005 (ip), vehicle: Klucel (hydroxypropylcellulose) (HPC)
[2] = dose: 100.0 mg/kg/injection, schedule: Q01DX005 (ip), vehicle: Klucel (hydroxypropylcellulose) (HPC)
[3] = dose: 50.0 mg/kg/injection, schedule: Q01DX005 (ip), vehicle: saline with Tween-80
[4] = dose: 100.0 mg/kg/injection, schedule: Q01DX005 (ip), vehicle: saline with Tween-80
[5] = dose: 200.0 mg/kg/injection, schedule: Q01DX005 (ip), vehicle: saline with Tween-80
[6] = dose: 12.5 mg/kg/injection, schedule: Q01DX009 (ip), vehicle: water
[7] = dose: 25.0 mg/kg/injection, schedule: Q01DX009 (oral), vehicle: water
[8] = dose: 50.0 mg/kg/injection, schedule: Q01DX009 (ip), vehicle: water
[9] = dose: 100.0 mg/kg/injection, schedule: Q01DX001 (ip), vehicle: Klucel (hydroxypropylcellulose) (HPC)
[10] = dose: 200.0 mg/kg/injection, schedule: Q01DX001 (ip), vehicle: Klucel (hydroxypropylcellulose) (HPC)
[11] = dose: 400.0 mg/kg/injection, schedule: Q01DX001 (ip), vehicle: Klucel (hydroxypropylcellulose) (HPC)
[12] = dose: 50.0 mg/kg/injection, schedule: Q01DX009 (ip), vehicle: saline with Tween-80
[13] = dose: 100.0 mg/kg/injection, schedule: Q01DX009 (ip), vehicle: saline with Tween-80

Measured: T/C

CC(=O)C1CCC2C3CC4OCC5(CCC(O)CC45Br)C3CCC12C (configuration not stated)
inactive: [1] 104 % of control | [2] 98 % of control | dose: 200.0 mg/kg/injection, schedule: Q01DX005 (ip), vehicle: Klucel (hydroxypropylcellulose) (HPC) 101 % of control

Cn1c(=O)c2c(=O)n3ccccc3nc2n(C)c1=O
inactive: [1] 104 % of control | [2] 96 % of control

CCOC(=O)Nc1cc2ncc(-c3ccccc3)nc2c(N)n1
inactive: dose: 50.0 mg/kg/injection, schedule: Q01DX001 (ip), vehicle: saline with Tween-80 97 % of control | dose: 100.0 mg/kg/injection, schedule: Q01DX001 (ip), vehicle: saline with Tween-80 93 % of control | dose: 200.0 mg/kg/injection, schedule: Q01DX001 (ip), vehicle: saline with Tween-80 90 % of control

CC1N(C)c2cc([N+](=O)[O-])ccc2C1(C)C (configuration not stated)
inactive: [3] 95 % of control | [4] 100 % of control | [5] 87 % of control

O=C(c1ccccc1)c1cccc(C(=O)c2ccccc2)c1
inactive: dose: 25.0 mg/kg/injection, schedule: Q01DX005 (ip), vehicle: saline with Tween-80 99 % of control | [3] 104 % of control | [4] 95 % of control | [5] 105 % of control

O=C1C(=O)c2ccccc2C(O)=C1CC=C(Cl)Cl
inactive: dose: 6.2 mg/kg/injection, schedule: Q01DX009 (ip), vehicle: water 120 % of control | [6] 120 % of control | dose: 25.0 mg/kg/injection, schedule: Q01DX009 (ip), vehicle: water 110 % of control | [7] 105 % of control | [8] 120 % of control | dose: 50.0 mg/kg/injection, schedule: Q01DX009 (oral), vehicle: water 120 % of control | dose: 100.0 mg/kg/injection, schedule: Q01DX009 (oral), vehicle: water 120 % of control

CC(C)C1CS1=O (configuration not stated)
inactive: dose: 60.0 mg/kg/injection, schedule: Q01DX005 (ip), vehicle: saline 97 % of control | dose: 120.0 mg/kg/injection, schedule: Q01DX005 (ip), vehicle: saline 97 % of control | dose: 240.0 mg/kg/injection, schedule: Q01DX005 (ip), vehicle: saline 109 % of control

NCCCn1[nH]c(=O)c2cnccc2c1=O
inactive: dose: 50.0 mg/kg/injection, schedule: Q01DX005 (ip), vehicle: saline 103 % of control | dose: 100.0 mg/kg/injection, schedule: Q01DX005 (ip), vehicle: saline 94 % of control | dose: 200.0 mg/kg/injection, schedule: Q01DX005 (ip), vehicle: saline 101 % of control

COC[C@H]1OC(=O)c2coc3c2[C@@]1(C)C1=C(C3=O)[C@@H]2CCC(=O)[C@@]2(C)C[C@H]1OC(C)=O
inactive: dose: 0.31 mg/kg/injection, schedule: Q01DX009 (ip), vehicle: saline with Tween-80 115 % of control | dose: 2.5 mg/kg/injection, schedule: Q01DX009 (ip), vehicle: saline with Tween-80 99 % of control and 90 % of control

CCCCCCCCC1=CCc2c1ccc1c2ccc2cc(C(=O)Oc3cccc(N(CCCl)CCCl)c3)ccc21
inactive: dose: 100.0 mg/kg/injection, schedule: Q01DX001 (ip), vehicle: saline 99 % of control | dose: 200.0 mg/kg/injection, schedule: Q01DX001 (ip), vehicle: saline 100 % of control | dose: 400.0 mg/kg/injection, schedule: Q01DX001 (ip), vehicle: saline 100 % of control

COc1ccc(N=C([Se])CCC(C)C)cc1
inactive: dose: 6.25 mg/kg/injection, schedule: Q01DX009 (ip), vehicle: Klucel (hydroxypropylcellulose) (HPC) 111 % of control | dose: 12.5 mg/kg/injection, schedule: Q01DX009 (ip), vehicle: Klucel (hydroxypropylcellulose) (HPC) 106 % of control | dose: 25.0 mg/kg/injection, schedule: Q01DX009 (ip), vehicle: Klucel (hydroxypropylcellulose) (HPC) 108 % of control

Cc1nn(C(=O)c2ccncc2)c(C)c1N=Nc1nc2ccc([N+](=O)[O-])cc2s1
inactive: dose: 100.0 mg/kg/injection, schedule: Q04DX002 (ip), vehicle: saline with Tween-80 97 % of control | dose: 200.0 mg/kg/injection, schedule: Q04DX002 (ip), vehicle: saline with Tween-80 94 % of control

CCC1C(=O)OCc2c1cc1n(c2=O)CCC1 (configuration not stated)
inactive: dose: 50.0 mg/kg/injection, schedule: Q01DX001 (ip), vehicle: Klucel (hydroxypropylcellulose) (HPC) 123 % of control | [9] 106 % of control | [10] 100 % of control | [11] 108 % of control

CC(=O)Oc1c2c(c(OC(C)=O)c3ccccc13)C(=O)C(O)C(C)O2 (configuration not stated)
inactive: [9] 102 % of control | [10] 96 % of control | [11] 100 % of control

NNC(=O)C(=O)N/N=C(\CC1(O)C(=O)Nc2ccccc21)c1ccccc1O (configuration not stated)
inactive: [3] 104 % of control | [4] 98 % of control | [5] 103 % of control

CC(C)n1nnnc1-c1ccccc1
inactive: dose: 50.0 mg/kg/injection, schedule: Q01DX009 (ip), vehicle: Klucel (hydroxypropylcellulose) (HPC) 94 % of control | dose: 100.0 mg/kg/injection, schedule: Q01DX009 (ip), vehicle: Klucel (hydroxypropylcellulose) (HPC) 94 % of control | dose: 200.0 mg/kg/injection, schedule: Q01DX009 (ip), vehicle: Klucel (hydroxypropylcellulose) (HPC) 94 % of control

CCOc1cccc(/C=N\Nc2nc(=O)cc(C(=O)OC)s2)c1O
inactive: [3] 97 % of control | [4] 104 % of control | [5] 107 % of control

CCOC(=O)C(N)CSC(c1ccccc1)(c1ccccc1)c1ccccc1 (configuration not stated)
active: [8] 155 % of control | dose: 200.0 mg/kg/injection, schedule: Q04DX003 (ip), vehicle: saline 180 % of control
inactive: [6] 117 % of control and 98 % of control | [7] 114 % of control

O=C(OC(c1ccccc1)c1ccccc1)c1ccccc1
inactive: dose: 50.0 mg/kg/injection, schedule: Q01DX009 (ip), vehicle: saline 99 % of control | dose: 100.0 mg/kg/injection, schedule: Q01DX009 (ip), vehicle: saline 108 % of control | dose: 200.0 mg/kg/injection, schedule: Q01DX009 (ip), vehicle: saline 102 % of control

NC(=O)N=Nc1ccc(Br)cc1
inactive: [3] 102 % of control | [4] 102 % of control | [5] 93 % of control

CNC(=O)OCc1c(COC(=O)NC)c2n(c1C)-c1ccc(OC)cc1CCC2
inactive: dose: 7.5 mg/kg/injection, schedule: Q01DX005 (ip), vehicle: Klucel (hydroxypropylcellulose) (HPC) 119 % of control | dose: 15.0 mg/kg/injection, schedule: Q01DX005 (ip), vehicle: Klucel (hydroxypropylcellulose) (HPC) 122 % of control

[N-]=[N+]=NCN1C(=O)C2C3C=CC(C2C1=O)C1C2C(=O)N(CN=[N+]=[N-])C(=O)C2C31 (configuration not stated)
inactive: dose: 25.0 mg/kg/injection, schedule: Q01DX009 (ip), vehicle: saline with Tween-80 106 % of control | [12] 108 % of control | [13] 100 % of control | dose: 200.0 mg/kg/injection, schedule: Q01DX009 (ip), vehicle: saline with Tween-80 115 % of control

O=c1[nH]c(=O)n(C2CC(O)C(CO)C2)cc1F (configuration not stated)
inactive: dose: 200.0 mg/kg/injection, schedule: Q01DX005 (ip), vehicle: saline + Tween-80 + alcohol 100 % of control | dose: 400.0 mg/kg/injection, schedule: Q01DX005 (ip), vehicle: saline + Tween-80 + alcohol 120 % of control

N/N=C1/C(=O)N(c2cccc([N+](=O)[O-])c2)C(=O)C1C(=O)Nc1cccc([N+](=O)[O-])c1 (configuration not stated)
inactive: dose: 37.5 mg/kg/injection, schedule: Q01DX005 (ip), vehicle: saline with Tween-80 101 % of control | dose: 75.0 mg/kg/injection, schedule: Q01DX005 (ip), vehicle: saline with Tween-80 100 % of control | dose: 150.0 mg/kg/injection, schedule: Q01DX005 (ip), vehicle: saline with Tween-80 105 % of control

S=c1nn[nH]n1-c1ccccc1
inactive: dose: 25.0 mg/kg/injection, schedule: Q04DX003 (ip), vehicle: saline with Tween-80 100 % of control | [12] 110 % of control | dose: 50.0 mg/kg/injection, schedule: Q04DX003 (ip), vehicle: saline with Tween-80 100 % of control | [13] 110 % of control | dose: 100.0 mg/kg/injection, schedule: Q04DX003 (ip), vehicle: saline with Tween-80 100 % of control and 91 % of control

NCCSSc1ccc([N+](=O)[O-])cc1
inactive: dose: 12.5 mg/kg/injection, schedule: Q04DX002 (ip), vehicle: Klucel (hydroxypropylcellulose) (HPC) 95 % of control | dose: 25.0 mg/kg/injection, schedule: Q04DX002 (ip), vehicle: Klucel (hydroxypropylcellulose) (HPC) 86 % of control
